What is called IC50 is the concentration that inhibits the measured activity by half. As usually defined, the Km is the substrate concentration at which the rate is half of its maximum.

This is an account of results in patent publication US20110008461A1 (priority 2008, published 2011).

“And” between values parts separate entries of the source, which are not always exact repeats. Identical values can stand only once. Counter-ions that a name gives are not always drawn. Like-named read-outs stand apart in the source and are kept apart here. Marks after values point to notes of the source that are not given here. A value given as a limit tells only on which side of the number the result lay.

The target of data set [1] is T1, PEPCK (Rattus norvegicus, UniProt P07379).
T1 sequence (P07379 1-622): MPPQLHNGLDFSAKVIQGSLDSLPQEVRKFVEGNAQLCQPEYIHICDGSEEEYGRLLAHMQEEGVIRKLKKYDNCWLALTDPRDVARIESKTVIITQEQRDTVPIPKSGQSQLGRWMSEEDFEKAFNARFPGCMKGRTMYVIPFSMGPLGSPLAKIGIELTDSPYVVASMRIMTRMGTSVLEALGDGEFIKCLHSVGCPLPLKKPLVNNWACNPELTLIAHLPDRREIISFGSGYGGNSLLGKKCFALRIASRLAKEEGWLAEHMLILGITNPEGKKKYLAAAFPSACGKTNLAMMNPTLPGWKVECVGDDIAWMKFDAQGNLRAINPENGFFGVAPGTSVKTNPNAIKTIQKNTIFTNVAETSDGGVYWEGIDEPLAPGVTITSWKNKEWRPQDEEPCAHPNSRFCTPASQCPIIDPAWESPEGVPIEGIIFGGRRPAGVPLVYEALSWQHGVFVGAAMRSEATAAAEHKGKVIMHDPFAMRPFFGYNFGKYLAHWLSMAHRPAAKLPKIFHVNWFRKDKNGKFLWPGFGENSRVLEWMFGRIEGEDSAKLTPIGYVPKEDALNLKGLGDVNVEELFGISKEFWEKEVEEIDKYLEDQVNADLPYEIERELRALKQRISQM
In words: Kinetic analysis of CMMP inhibition of PEPCK against PEP (FIG. 5). It is filed as biochemical. The text has this: The ‘I’ values given in the legend are the concentrations of CMMP used in uM.
This was originally supported by the inhibition of PEPCK by sulfoacetate. […] Based upon that work, we proposed a novel scaffold to be utilized in the development of molecules that bridge these two sub-sites with and in doing so would gain potency and, perhaps more importantly with a metabolic enzyme like PEPCK, specificity. This scaffold is Formulas C, E, and/or G and an example is CMMP. […] This molecule thereby gains both potency and specificity for PEPCK. […] The information obtained from FIGS. 4 and 5 indicate that derivatives of CMMP, as shown by the scaffolds of Formulas E and G, are likely to be similarly effective as CMMP.

Data set [2] addresses PEPCK. As to conditions: cited from earlier work.
Data set [3] has as its target pyrophosphate-dependent phosphofructokinase. As to conditions: reported; cited from earlier work.
The target in data set [4] is T2, Rat Liver Cytosolic Phosphoenolpyruvate Carboxykinase (Rattus norvegicus, UniProt P07379).
T2 sequence (P07379 1-622): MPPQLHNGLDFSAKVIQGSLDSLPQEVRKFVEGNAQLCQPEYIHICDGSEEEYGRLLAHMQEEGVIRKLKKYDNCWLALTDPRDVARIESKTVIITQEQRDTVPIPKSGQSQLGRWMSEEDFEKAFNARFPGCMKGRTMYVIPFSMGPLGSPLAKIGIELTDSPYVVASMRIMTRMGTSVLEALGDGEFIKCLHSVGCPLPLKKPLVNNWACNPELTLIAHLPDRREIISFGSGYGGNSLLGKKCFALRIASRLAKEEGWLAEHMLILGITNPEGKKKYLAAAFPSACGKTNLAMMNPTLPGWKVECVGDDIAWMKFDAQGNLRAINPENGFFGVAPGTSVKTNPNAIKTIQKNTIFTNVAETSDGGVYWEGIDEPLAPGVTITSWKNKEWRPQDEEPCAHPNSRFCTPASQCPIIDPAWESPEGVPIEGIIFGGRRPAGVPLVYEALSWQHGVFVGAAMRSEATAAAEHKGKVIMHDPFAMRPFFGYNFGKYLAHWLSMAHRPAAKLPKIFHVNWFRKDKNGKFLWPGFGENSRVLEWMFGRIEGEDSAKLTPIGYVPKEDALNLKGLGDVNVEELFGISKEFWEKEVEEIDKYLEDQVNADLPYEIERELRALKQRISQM
Put plainly: Continuous spectrophotometric PEPCK inhibition assay coupled to malate dehydrogenase (preliminary screen, inhibition patterns, Dixon plots).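 For all read-outs here: PEPCK activity followed continuously via malate dehydrogenase coupling, where OAA reduction consumes NADH, seen as falling absorbance at 340 nm, run at 35 °C.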 To be noted: for % Activity Remaining: PEP 40 μM, preliminary screen, average of two PEPCK preparations.

A further data set addresses T3, cytosolic PEPCK (Rattus norvegicus, UniProt P07379).
T3 sequence (P07379 1-622): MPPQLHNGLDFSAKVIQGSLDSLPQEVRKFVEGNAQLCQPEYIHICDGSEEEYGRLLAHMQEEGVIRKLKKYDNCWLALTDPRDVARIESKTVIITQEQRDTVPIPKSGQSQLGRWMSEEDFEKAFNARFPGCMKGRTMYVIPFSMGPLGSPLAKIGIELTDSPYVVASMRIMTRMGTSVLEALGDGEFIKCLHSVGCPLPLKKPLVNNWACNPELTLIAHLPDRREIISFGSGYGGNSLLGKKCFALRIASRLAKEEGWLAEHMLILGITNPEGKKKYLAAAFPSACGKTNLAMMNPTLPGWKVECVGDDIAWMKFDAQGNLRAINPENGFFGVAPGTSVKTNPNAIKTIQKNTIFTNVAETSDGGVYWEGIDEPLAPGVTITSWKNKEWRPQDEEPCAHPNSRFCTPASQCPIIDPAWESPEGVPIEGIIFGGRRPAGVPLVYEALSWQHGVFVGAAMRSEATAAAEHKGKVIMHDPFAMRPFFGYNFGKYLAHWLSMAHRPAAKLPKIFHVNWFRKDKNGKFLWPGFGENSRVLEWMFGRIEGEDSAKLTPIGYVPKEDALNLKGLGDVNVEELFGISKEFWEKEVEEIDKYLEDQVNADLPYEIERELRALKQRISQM
In words: Kinetic data for MPA binding to the allosteric site of PEPCK. It is filed as biochemical.

The next data set deals with T4, avian liver mPEPCK (Gallus gallus, UniProt P21642).
T4 sequence (P21642 34-641): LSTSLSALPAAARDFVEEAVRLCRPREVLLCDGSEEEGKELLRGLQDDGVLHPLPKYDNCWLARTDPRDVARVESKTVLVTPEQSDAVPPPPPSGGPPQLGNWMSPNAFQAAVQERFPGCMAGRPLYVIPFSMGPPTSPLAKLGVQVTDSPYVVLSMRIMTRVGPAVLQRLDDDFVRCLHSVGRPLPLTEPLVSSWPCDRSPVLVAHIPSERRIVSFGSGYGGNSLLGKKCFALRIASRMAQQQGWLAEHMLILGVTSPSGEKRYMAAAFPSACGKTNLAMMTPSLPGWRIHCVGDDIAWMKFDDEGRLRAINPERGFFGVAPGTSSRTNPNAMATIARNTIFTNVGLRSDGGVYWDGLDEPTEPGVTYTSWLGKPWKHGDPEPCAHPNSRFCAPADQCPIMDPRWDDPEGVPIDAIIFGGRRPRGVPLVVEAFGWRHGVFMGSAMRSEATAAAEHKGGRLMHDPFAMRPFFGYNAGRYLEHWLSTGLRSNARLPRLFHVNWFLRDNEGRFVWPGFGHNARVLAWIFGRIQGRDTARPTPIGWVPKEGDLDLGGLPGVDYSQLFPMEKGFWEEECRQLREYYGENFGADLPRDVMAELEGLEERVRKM
To be noted: with respect to OAA; cited from earlier work.

Substrate in data set [5]: C=C(OP(=O)(O)O)C(=O)O
In words: cells, lysate or membranes named. As to conditions: other: substrate, determined under the same assay conditions.

Setting [6] is: read-out: Ki, intercept effect (Kii), noncompetitive, PEP varied substrate.
Where [7] appears, read: read-out: Ki, slope effect (Kis), noncompetitive, PEP varied substrate, Cleland kinetics program.

At PEPCK [1], `O=C(O)CSc1cccnc1C(=O)O` [CMMP, 3-carboxymethylmercaptopicolinic acid] had a Ki of 12 µM. The Pattern of Inhibition result on PEPCK [1] (against PEP) was “competitive”.
For the molecule `O=C(O)C(=O)O` [Compound 1, Oxalate], the Ki at PEPCK [2] was 5 to 89 µM.
As to `O=P(O)(O)CP(=O)(O)O` [Compound 29, Methanediphosphonate], in data set [3], the IC50 was greater than 2000 µM. The “Pattern of Inhibition” value was “noncompetitive” in data set [4] (PEP varied substrate) and “Noncompetitive” in data set [4] (PEP varied substrate, listed as Methanediphosphonate (29)). Also, the “% Activity Remaining” value in data set [4] (analogue 1.5 mM) is listed as 4^f %. Besides, the Ki worked out at 90 ± 5 µM in data set [4] (setting [6]) and 32 ± 2 µM in data set [4] (setting [7]).
In the case of `O=P(O)(O)CCP(=O)(O)O` [Compound 30, 1,2-Ethanediphosphonate], the “Pattern of Inhibition” value is listed as “competitive” in data set [4] (PEP varied substrate) and “Competitive” in data set [4] (PEP varied substrate, listed as 1,2-Ethanediphosphonate (30)). This molecule displayed a Ki in data set [4] (PEP varied substrate, Cleland kinetics program, 35° C., pH 7.0) of 5100 µM. In addition, the “% Activity Remaining” value in data set [4] (analogue 6 mM) is 96^e %.
As for `O=S(=O)(O)CS(=O)(=O)O` [Compound 31, Methanedisulfonate], the “Pattern of Inhibition” value in data set [4] (PEP varied substrate) is on record as “noncompetitive”; in data set [4] (PEP varied substrate, listed as Methanedisulfonate (31)) it was “Noncompetitive”. Further, the “% Activity Remaining” value in data set [4] (analogue 1.5 mM) is given as 4^f %. The Ki came to 168 ± 25 µM in data set [4] (setting [6]) and 27 ± 3 µM in data set [4] (setting [7]).
For `O=S(=O)(O)CCS(=O)(=O)O` [Compound 32, 1,2-Ethanedisulfonate], the “% Activity Remaining” value in data set [4] (analogue 6 mM) was 42^e %. The Ki is roughly 3000 µM in data set [4] (from Dixon plots using two PEP concentrations) and 3000 µM in data set [4] (from Dixon plots using two PEP concentrations, listed as 1,2-Ethanedisulfonate (32)).
`C[C@@H]1O[C@@H]1P(=O)(O)O` [Compound 33, Phosphomycin]: in data set [4] (analogue 3 mM), the “% Activity Remaining” value was 108^c %.
Still for that read-out and setting: the figure for `O=[N+]([O-])c1ccc(OP(=O)(O)O)cc1` [Compound 35, p-Nitrophenylphosphate] is 103^c %.
As to `O=C(O)c1ncccc1S` [MPA, 3-mercaptopicolinic acid], on cytosolic PEPCK (read-out: apparent affinity), the Ki is roughly 100 µM. For the same molecule, the Pattern of Inhibition entry at cytosolic PEPCK (versus nucleotide) is recorded as “competitive with nucleotide binding”.
As to `O=C(O)C(=O)CS(=O)(=O)O` [β-sulfopyruvate], the Pattern of Inhibition entry at avian liver mPEPCK is given as “competitive”.
For Phenylphosphate [Compound 34], in data set [4] (analogue 3 mM), the “% Activity Remaining” value is listed as 96^c %.
Same read-out and setting: the value for Threonine phosphate [Compound 22] was 97^c %.

B1: Rat Liver Cytosolic Phosphoenolpyruvate Carboxykinase (Rattus norvegicus) (protein)
chain: MPPQLHNGLDFSAKVIQGSLDSLPQEVRKFVEGNAQLCQPEYIHICDGSEEEYGRLLAHMQEEGVIRKLKKYDNCWLALTDPRDVARIESKTVIITQEQRDTVPIPKSGQSQLGRWMSEEDFEKAFNARFPGCMKGRTMYVIPFSMGPLGSPLAKIGIELTDSPYVVASMRIMTRMGTSVLEALGDGEFIKCLHSVGCPLPLKKPLVNNWACNPELTLIAHLPDRREIISFGSGYGGNSLLGKKCFALRIASRLAKEEGWLAEHMLILGITNPEGKKKYLAAAFPSACGKTNLAMMNPTLPGWKVECVGDDIAWMKFDAQGNLRAINPENGFFGVAPGTSVKTNPNAIKTIQKNTIFTNVAETSDGGVYWEGIDEPLAPGVTITSWKNKEWRPQDEEPCAHPNSRFCTPASQCPIIDPAWESPEGVPIEGIIFGGRRPAGVPLVYEALSWQHGVFVGAAMRSEATAAAEHKGKVIMHDPFAMRPFFGYNFGKYLAHWLSMAHRPAAKLPKIFHVNWFRKDKNGKFLWPGFGENSRVLEWMFGRIEGEDSAKLTPIGYVPKEDALNLKGLGDVNVEELFGISKEFWEKEVEEIDKYLEDQVNADLPYEIERELRALKQRISQM
On to B1, for which, in data set [5], the Michaelis constant (Km) was 82 µM and 89 µM.
